Data: ChEMBL document CHEMBL1143098, “Design and synthesis of 6-amino-1,4-oxazepane-3,5-dione derivatives as novel broad spectrum anticonvulsants” (2008)

What was measured:
Mus musculus [1] = organism: Mus musculus; assay: Anticonvulsant activity against pentylenetetrazole-induced seizure in ICR mouse after 30 mins; assay type: functional; conditions: 0.5 h
Mus musculus [2] = organism: Mus musculus; assay: Anticonvulsant activity in ICR mouse after 30 mins by MES test; assay type: functional; conditions: 0.5 h

Compound: O=C(NC1COCC(=O)N(Cc2ccc(F)cc2)C1=O)OCc1ccccc1 (stereo unspecified)
- ED50 (Mus musculus [1]): 53.9 mg/kg
- ED50 (Mus musculus [2]): > 100 mg/kg

Compound: O=C(NC1COCC(=O)N(Cc2ccco2)C1=O)OCc1ccccc1 (stereo unspecified)
- ED50 (Mus musculus [1]): 64.1 mg/kg
- ED50 (Mus musculus [2]): > 100 mg/kg

Compound: O=C(NC1COCC(=O)N(Cc2ccccc2)C1=O)OCc1ccccc1 (stereo unspecified)
- ED50 (Mus musculus [1]): 64.1 mg/kg
- ED50 (Mus musculus [2]): > 100 mg/kg

Compound: CCCCCCN1C(=O)COCC(NC(=O)OCc2ccccc2)C1=O (stereo unspecified)
- ED50 (Mus musculus [1]): 35.6 mg/kg
- ED50 (Mus musculus [2]): 87.5 mg/kg

Compound: CC(C)CN1C(=O)COCC(NC(=O)OCc2ccccc2)C1=O (stereo unspecified)
- ED50 (Mus musculus [1]): > 100 mg/kg
- ED50 (Mus musculus [2]): > 100 mg/kg

Compound: O=C(NC1COCC(=O)N(C2CC2)C1=O)OCc1ccccc1 (stereo unspecified)
- ED50 (Mus musculus [1]): 27 mg/kg
- ED50 (Mus musculus [2]): 87.5 mg/kg

Compound: CN1C(=O)COCC(NC(=O)OCc2ccccc2)C1=O (stereo unspecified)
- ED50 (Mus musculus [1]): 41 mg/kg
- ED50 (Mus musculus [2]): 68.8 mg/kg

Compound: CCCN1C(=O)COCC(NC(=O)OCc2ccccc2)C1=O (stereo unspecified)
- ED50 (Mus musculus [1]): > 100 mg/kg
- ED50 (Mus musculus [2]): > 100 mg/kg

Compound: O=C1COCC(NC(=O)OCc2ccccc2)C(=O)N1 (stereo unspecified)
- ED50 (Mus musculus [1]): 55.1 mg/kg
- ED50 (Mus musculus [2]): 81.2 mg/kg

Compound: C=CCN1C(=O)COCC(NC(=O)OCc2ccccc2)C1=O (stereo unspecified)
- ED50 (Mus musculus [1]): 37.1 mg/kg
- ED50 (Mus musculus [2]): 70.3 mg/kg

Compound: CCCCN1C(=O)COCC(NC(=O)OCc2ccccc2)C1=O (stereo unspecified)
- ED50 (Mus musculus [1]): 34.8 mg/kg
- ED50 (Mus musculus [2]): 93.8 mg/kg

Compound: O=C(NC1COCC(=O)N(O)C1=O)OCc1ccccc1 (stereo unspecified)
- ED50 (Mus musculus [1]): 96.9 mg/kg
- ED50 (Mus musculus [2]): 93.8 mg/kg

Compound: CCCC(CCC)C(=O)O [VALPROIC ACID]
- ED50 (Mus musculus [1]): 149 mg/kg
- ED50 (Mus musculus [2]): 271 mg/kg
